Data set [1] concerns the target T1, Catechol O-methyltransferase (Rattus norvegicus, UniProt P22734).
T1 sequence (P22734 whole entry): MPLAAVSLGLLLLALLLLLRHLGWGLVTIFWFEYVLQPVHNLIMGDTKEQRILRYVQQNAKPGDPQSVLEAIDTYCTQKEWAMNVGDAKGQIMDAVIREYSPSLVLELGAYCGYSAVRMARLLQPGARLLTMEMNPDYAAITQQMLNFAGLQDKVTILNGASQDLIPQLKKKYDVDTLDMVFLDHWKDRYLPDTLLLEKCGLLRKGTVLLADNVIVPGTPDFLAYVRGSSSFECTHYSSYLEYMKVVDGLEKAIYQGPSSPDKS
Kind of data set: In vitro inhibitory activity against catechol O-methyltransferase of rat brain using 3,4-dihydroxybenzoic acid as the substrate.

Data set [2] addresses T2, Aromatic-L-amino-acid decarboxylase (Sus scrofa, UniProt P80041).
T2 sequence (P80041 whole entry): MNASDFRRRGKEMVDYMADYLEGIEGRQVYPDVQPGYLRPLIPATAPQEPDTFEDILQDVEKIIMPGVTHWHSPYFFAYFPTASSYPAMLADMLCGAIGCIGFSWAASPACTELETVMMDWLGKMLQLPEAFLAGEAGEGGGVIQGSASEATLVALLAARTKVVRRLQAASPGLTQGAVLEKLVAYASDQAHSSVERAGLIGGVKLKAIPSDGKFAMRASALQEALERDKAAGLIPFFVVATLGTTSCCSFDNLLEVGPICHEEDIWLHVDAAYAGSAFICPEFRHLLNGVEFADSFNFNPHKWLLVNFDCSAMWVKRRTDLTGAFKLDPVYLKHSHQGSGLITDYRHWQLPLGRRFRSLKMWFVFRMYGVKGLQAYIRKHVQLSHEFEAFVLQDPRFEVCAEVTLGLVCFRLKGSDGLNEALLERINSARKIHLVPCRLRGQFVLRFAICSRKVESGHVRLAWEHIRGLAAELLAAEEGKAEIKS
Put plainly: Inhibitory activity against the dopamine decarboxylase.

The target of data set [3] is T3, Amine oxidase [flavin-containing] B (Rattus norvegicus, UniProt P19643).
T3 sequence (P19643 whole entry): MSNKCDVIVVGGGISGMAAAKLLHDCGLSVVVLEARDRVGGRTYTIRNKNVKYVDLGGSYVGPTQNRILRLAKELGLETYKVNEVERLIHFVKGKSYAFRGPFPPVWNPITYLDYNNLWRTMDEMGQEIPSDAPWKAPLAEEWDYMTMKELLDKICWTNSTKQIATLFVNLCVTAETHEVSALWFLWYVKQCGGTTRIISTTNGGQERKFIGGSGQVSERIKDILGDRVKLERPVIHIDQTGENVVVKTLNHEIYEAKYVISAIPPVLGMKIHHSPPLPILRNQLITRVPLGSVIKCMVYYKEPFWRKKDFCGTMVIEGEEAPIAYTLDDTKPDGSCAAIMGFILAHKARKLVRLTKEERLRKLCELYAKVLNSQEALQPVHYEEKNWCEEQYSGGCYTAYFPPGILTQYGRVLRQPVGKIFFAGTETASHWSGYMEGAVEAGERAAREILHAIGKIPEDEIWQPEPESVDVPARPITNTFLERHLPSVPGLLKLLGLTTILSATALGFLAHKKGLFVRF
Put plainly: Inhibitory activity against the Monoamine oxidase B.

Data set [4] concerns the target T4, Amine oxidase [flavin-containing] A (Mus musculus, UniProt Q64133).
T4 sequence (Q64133 whole entry): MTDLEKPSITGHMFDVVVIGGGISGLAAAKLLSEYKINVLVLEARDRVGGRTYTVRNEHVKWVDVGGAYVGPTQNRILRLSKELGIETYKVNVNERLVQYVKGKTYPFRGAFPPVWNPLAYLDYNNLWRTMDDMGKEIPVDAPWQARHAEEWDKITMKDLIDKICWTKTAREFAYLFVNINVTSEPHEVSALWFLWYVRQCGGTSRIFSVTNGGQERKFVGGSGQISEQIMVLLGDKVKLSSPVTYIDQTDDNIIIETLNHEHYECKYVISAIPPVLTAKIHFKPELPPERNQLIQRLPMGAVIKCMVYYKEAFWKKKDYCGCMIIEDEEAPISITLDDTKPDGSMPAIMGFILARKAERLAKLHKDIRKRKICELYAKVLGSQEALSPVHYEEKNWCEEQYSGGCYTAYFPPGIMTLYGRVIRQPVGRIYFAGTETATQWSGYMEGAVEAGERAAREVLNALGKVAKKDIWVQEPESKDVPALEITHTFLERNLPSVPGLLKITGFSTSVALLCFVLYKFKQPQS
Kind of data set: Inhibitory activity against the Monoamine oxidase A.

A further data set concerns the target T5, Tyrosine 3-monooxygenase (Bos taurus, UniProt P17289).
T5 sequence (P17289 whole entry): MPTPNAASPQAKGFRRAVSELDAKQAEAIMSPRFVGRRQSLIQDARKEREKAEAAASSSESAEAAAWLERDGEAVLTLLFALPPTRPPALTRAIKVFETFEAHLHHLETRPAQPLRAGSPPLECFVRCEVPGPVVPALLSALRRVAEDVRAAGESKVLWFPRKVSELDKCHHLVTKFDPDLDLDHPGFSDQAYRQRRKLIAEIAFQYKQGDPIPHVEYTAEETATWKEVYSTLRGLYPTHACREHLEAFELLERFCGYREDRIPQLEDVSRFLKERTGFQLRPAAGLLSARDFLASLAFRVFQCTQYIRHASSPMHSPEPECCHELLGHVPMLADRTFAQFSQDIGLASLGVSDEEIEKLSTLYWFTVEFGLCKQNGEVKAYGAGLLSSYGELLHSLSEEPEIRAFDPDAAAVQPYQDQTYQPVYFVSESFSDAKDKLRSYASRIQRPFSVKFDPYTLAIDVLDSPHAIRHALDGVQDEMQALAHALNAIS
Put plainly: Inhibitory activity against the tyrosine hydroxylase.

Data set [5] deals with T6, Dopamine beta-hydroxylase (Homo sapiens, UniProt P09172).
T6 sequence (P09172 whole entry): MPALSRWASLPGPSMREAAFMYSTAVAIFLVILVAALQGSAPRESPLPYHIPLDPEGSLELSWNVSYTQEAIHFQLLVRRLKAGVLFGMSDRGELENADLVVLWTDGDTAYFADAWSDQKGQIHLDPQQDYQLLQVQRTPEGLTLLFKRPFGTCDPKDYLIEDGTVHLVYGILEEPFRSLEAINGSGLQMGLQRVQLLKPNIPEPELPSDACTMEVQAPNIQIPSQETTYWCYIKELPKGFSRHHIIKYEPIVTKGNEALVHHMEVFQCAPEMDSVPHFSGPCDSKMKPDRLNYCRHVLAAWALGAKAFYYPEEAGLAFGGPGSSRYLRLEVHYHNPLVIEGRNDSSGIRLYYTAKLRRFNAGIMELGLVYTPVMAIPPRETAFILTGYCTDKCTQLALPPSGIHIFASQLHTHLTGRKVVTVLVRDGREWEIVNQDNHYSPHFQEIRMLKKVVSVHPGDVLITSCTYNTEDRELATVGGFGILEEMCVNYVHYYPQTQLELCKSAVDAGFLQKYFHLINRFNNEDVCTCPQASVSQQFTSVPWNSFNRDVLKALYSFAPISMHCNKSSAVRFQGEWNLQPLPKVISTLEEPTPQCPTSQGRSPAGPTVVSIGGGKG
Kind of data set: Inhibitory activity against the dopamine beta hydroxylase.

The nature of data set [6]: Inhibitory activity against Phenol sulfotransferase.
In data set [7] the test system is Rattus norvegicus. Kind of data set: Inhibition of formation of 3OMD in rat serum by 80 %, when compound was administered in combination with L-Dopa and carbidopa. The class given is functional.
Data set [8] is filed under the species Rattus norvegicus. Put plainly: Compound was tested for acute oral toxicity in Wistar rats. Type of data set: organism-based. The following applies: in vivo.

Bounds are passed on as bounds.

Turning to `COc1cc(C(=O)/C=C/c2cc(O)c(O)c([N+](=O)[O-])c2)cc(OC)c1OC`, the IC50 (commonly the concentration at which inhibition is half-maximal) in data set [1] was 5 nM; in data set [2], greater than 50000 nM; in [3], greater than 50000 nM; in data set [4] it was greater than 50000 nM; on Tyrosine 3-monooxygenase, 21000 nM; in data set [5], greater than 50000 nM.
The compound `O=[N+]([O-])c1cc(O)c(O)c([N+](=O)[O-])c1` [3,5-DINITROCATECHOL (OR-486)] gave an IC50 in data set [6] of 150000 nM.
`CS(=O)(=O)c1cc(C=O)cc(O)c1O` came in with an IC50 in data set [1] of 20000 nM.
Consider `O=C(NC12CC3CC(CC(C3)C1)C2)c1ccc(O)c(O)c1Cl`, for which, in data set [1], half-maximal inhibition (IC50) required 12000 nM.
On the same count and under the same terms, in the case of `O=C(NC12CC3CC(CC(C3)C1)C2)c1cc(O)c(O)cc1[N+](=O)[O-]` it was 1100 nM.
The same measure, in the same setting: in the case of `O=[N+]([O-])c1cc(CO)cc(O)c1O` it was 180 nM; in that of `O=Cc1cc(O)c(O)c(C(F)(F)F)c1`, 2300 nM.
`CC(=O)c1cc(O)c(O)c([N+](=O)[O-])c1`: the IC50 in data set [1] was determined as 16 nM; in data set [6], 125000 nM.
Consider `O=C(NC12CC3CC(CC(C3)C1)C2)c1cc(O)c(O)c(Cl)c1`, for which the midpoint of inhibition in [1], the IC50, lay at 400 nM.
The same measure, in the same setting: in the case of `O=[N+]([O-])c1cc(Cl)cc(O)c1O` it was 25 nM.
For `CC(C)C(=O)c1ccc(O)c(O)c1`, the IC50 in data set [1] was 6000 nM; in data set [2], greater than 50000 nM; in data set [3], greater than 50000 nM; in data set [4], greater than 50000 nM; at Tyrosine 3-monooxygenase, 24000 nM; in [5], greater than 50000 nM.
Take `N#CC(C#N)=Cc1cc(O)c(O)c([N+](=O)[O-])c1`: inhibition in data set [1] was half-maximal at 20 nM (IC50).
The same measure, in the same setting: in the case of `O=C(O)c1cc(O)c(O)c([N+](=O)[O-])c1` it was 620 nM; in that of `N#Cc1cc(C=O)cc(O)c1O`, 160 nM; in that of `O=C1/C(=C/c2cc(O)c(O)c([N+](=O)[O-])c2)CC/C1=C\c1cc(O)c(O)c([N+](=O)[O-])c1`, 3 nM.
Still for that read-out and setting: in the case of `N#Cc1cc(O)c(O)c([N+](=O)[O-])c1` it was 30 nM; in that of `CN(C)C(=O)/C(C#N)=C/c1cc(O)c(O)c([N+](=O)[O-])c1`, 18 nM.
The same measure, in the same setting: in the case of `O=C(O)CCCCc1cc(O)c(O)c(Cl)c1` it was 8000 nM.
In the case of `CC(=O)/C(C)=C/c1cc(O)c(O)c([N+](=O)[O-])c1`, the IC50 in data set [1] came to 12 nM.
Regarding `CC(=O)C(=Cc1cc(O)c(O)c([N+](=O)[O-])c1)C(C)=O` [NITECAPONE], the results for the IC50 in [1] and in data set [6] were 18 nM and 210000 nM, respectively. In addition, the Oral dose in the data set on Rattus norvegicus [7] was found to be 30 mg/kg. Moreover, the Toxicity in the data set listed under Rattus norvegicus [8] worked out at 2500 mg/kg.
In turn, `N#Cc1cc(C(=O)NC23CC4CC(CC(C4)C2)C3)cc(O)c1O` registered an IC50 in data set [1] of 90 nM.
On the same count and under the same terms, in the case of `O=C(NC12CC3CC(CC(C3)C1)C2)c1cc(O)c(O)c([N+](=O)[O-])c1` it was 19 nM; in that of `O=Cc1cc(O)c(O)c(C=O)c1`, 160 nM; in that of `O=C(NC12CC3CC(CC(C3)C1)C2)c1cc(O)c(O)cc1Cl`, 2700 nM.
Same read-out and setting: in the case of `O=C(O)CCCCc1cc(O)c(O)c([N+](=O)[O-])c1` it was 90 nM; in that of `O=Cc1cc(O)c(O)c([N+](=O)[O-])c1` [3,4-DIHYDROXY-5-NITROBENZALDEHYDE], 24 nM.
In turn, `CCOC(=O)/C(C#N)=C/c1cc(O)c(O)c([N+](=O)[O-])c1` yielded an IC50 in data set [1] of 50 nM.
For `O=C(/C=C/c1cc(O)c(O)c([N+](=O)[O-])c1)c1ccccc1`, the IC50 in data set [1] was 6 nM; in [2], greater than 50000 nM; in [3], greater than 50000 nM; in data set [4], greater than 50000 nM; against Tyrosine 3-monooxygenase, 50000 nM; in data set [5] it was greater than 50000 nM.
Take `CC(=O)C(=Cc1cc(O)c(O)c(C(F)(F)F)c1)C(C)=O`: the IC50 in data set [1] is 1500 nM.

For the origin of these results see ChEMBL document CHEMBL1124446, “Synthesis of some novel potent and selective catechol O-methyltransferase inhibitors” (J Med Chem, 1989).
